Measurements as given in paper PMC3119473 (PLoS ONE, 2011).
Entries after “also recorded” stand apart in the source; their conditions may differ. Square brackets hold non-standard residues; d marks the D form. Ends that are not written are not given here. fluorescein = fluorescein, N-terminal label; Lys(Me3) = C[N+](C)(C)CCCC[C@H](N)C(=O)O; Lys(Me2) = CN(C)CCCC[C@H](N)C(=O)O

Key:
[1] = molecular target: T1, N-terminal PWWP domain of human WHSC1L1 (residues 247–402) (Homo sapiens, UniProt Q9BZ95); experiment: Fluorescence polarization binding of histone peptides to WHSC1L1 N-terminal PWWP domain; conditions: N-terminal PWWP domain only, N-terminally fluorescein-labeled peptide 40 nM, PWWP domain titrated, 20 mM PIPES pH 6.5, 50 mM NaCl, 0.01% Tween-20, Very weak = binding too weak to be fitted reliably
T1 construct: WHSC1L1 (residues 247–402); His-tag (cleaved yes); made in house; host or cells: Escherichia coli BL21 (DE3)-V2R-pRARE2
T1 sequence (Q9BZ95 247-402): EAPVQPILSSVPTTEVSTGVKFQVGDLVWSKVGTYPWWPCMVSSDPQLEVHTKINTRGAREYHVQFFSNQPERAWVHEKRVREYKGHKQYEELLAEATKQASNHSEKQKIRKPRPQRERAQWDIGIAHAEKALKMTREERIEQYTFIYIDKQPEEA
Experimental: (§1) DNA fragment encoding the PWWP domain of human BRPF1 (residues 1085–1213), BRPF2 (residues 925–1049), BRPF3 (residues 1056–1195), HDGF2 (residues 1–93), DNMT3A (residues 278–427), DNMT3B (residues 206–355), MUM1 (residues 406–539) WHSC1 (residues 208–368) and WHSC1L1 (residues 247–402) were amplified by PCR and sub-cloned into pET28-MHL vector (Genbank accession number: EF456735) and transformed into Escherichia coli BL21 (DE3)-V2R-pRARE2. The cells were grown in Terrific Broth and the protein was over-expressed by addition of 1 mM isopropyl-1-thio-D-galactopyranoside (IPTG) and incubated overnight at 15°C. Harvested cells were resuspended in 50 mM HEPES, pH 7.4, supplemented with 500 mM NaCl, 2 mM β-mercaptoethanol, 5% glycerol, 0.1% CHAPS. The cells were lysed by passing through a microfluidizer (Microfluidics Corporation) at 20,000 psi. After clarification of the crude extract by high-speed centrifugation, the lysate was loaded onto a 5 ml HiTrap chelating column (GE Healthcare), charged with Ni^2+. The column was washed with 10 column volumes of 20 mM HEPES buffer, pH 7.4, containing 500 mM NaCl, 50 mM imidazole and 5% glycerol, the protein was eluted with 20 mM HEPES buffer, pH 7.4, 500 mM NaCl, 250 mM imidazole, 5% glycerol. […]
Fluorescence polarization assays were performed in 384-well plates, using the Synergy 2 microplate reader from BioTek as described in [43]. […]

[2] = molecular target: T2, PWWP domain of human BRPF2 (residues 925–1049) (Homo sapiens, UniProt O95696); experiment: Fluorescence polarization binding of histone peptides to BRPF2 PWWP domain; conditions: N-terminally fluorescein-labeled peptide 40 nM, PWWP domain titrated, 20 mM PIPES pH 6.5, 50 mM NaCl, 0.01% Tween-20, Very weak = binding too weak to be fitted reliably
T2 construct: BRPF2 (residues 925–1049); His-tag (cleaved yes); made in house; host or cells: Escherichia coli BL21 (DE3)-V2R-pRARE2
T2 sequence (O95696 925-1049): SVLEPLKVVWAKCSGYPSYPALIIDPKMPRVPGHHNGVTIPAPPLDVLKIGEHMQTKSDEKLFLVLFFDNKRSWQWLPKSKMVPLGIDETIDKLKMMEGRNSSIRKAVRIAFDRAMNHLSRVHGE
Experimental: as §1, with “glycerol. The protein was dialyzed against buffer containing 20 mM HEPES, pH 7.4, 500 mM NaCl and 5% glyceral.” for “glycerol.”

[3] = molecular target: T3, PWWP domain of human HDGF2 (residues 1–93) (Homo sapiens, UniProt Q7Z4V5); experiment: Fluorescence polarization binding of histone peptides to HDGF2 PWWP domain; conditions: N-terminally fluorescein-labeled peptide 40 nM, PWWP domain titrated, 20 mM PIPES pH 6.5, 50 mM NaCl, 0.01% Tween-20, Very weak = binding too weak to be fitted reliably
T3 construct: HDGF2 (residues 1–93); His-tag (cleaved yes); made in house; host or cells: Escherichia coli BL21 (DE3)-V2R-pRARE2
T3 sequence (Q7Z4V5 1-93): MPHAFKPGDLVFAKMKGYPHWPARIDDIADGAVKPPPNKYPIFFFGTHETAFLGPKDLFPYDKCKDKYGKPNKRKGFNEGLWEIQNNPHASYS
Experimental: DNA fragment encoding the PWWP domain of human BRPF1 (residues 1085–1213), BRPF2 (residues 925–1049), BRPF3 (residues 1056–1195), HDGF2 (residues 1–93), DNMT3A (residues 278–427), DNMT3B (residues 206–355), MUM1 (residues 406–539) WHSC1 (residues 208–368) and WHSC1L1 (residues 247–402) were amplified by PCR and sub-cloned into pET28-MHL vector (Genbank accession number: EF456735) and transformed into Escherichia coli BL21 (DE3)-V2R-pRARE2. The cells were grown in Terrific Broth and the protein was over-expressed by addition of 1 mM isopropyl-1-thio-D-galactopyranoside (IPTG) and incubated overnight at 15°C. Harvested cells were resuspended in 50 mM HEPES, pH 7.4, supplemented with 500 mM NaCl, 2 mM β-mercaptoethanol, 5% glycerol, 0.1% CHAPS. The cells were lysed by passing through a microfluidizer (Microfluidics Corporation) at 20,000 psi. After clarification of the crude extract by high-speed centrifugation, the lysate was loaded onto a 5 ml HiTrap chelating column (GE Healthcare), charged with Ni^2+. The column was washed with 10 column volumes of 20 mM HEPES buffer, pH 7.4, containing 500 mM NaCl, 50 mM imidazole and 5% glycerol, the protein was eluted with 20 mM HEPES buffer, pH 7.4, 500 mM NaCl, 250 mM imidazole, 5% glycerol. The protein was dialyzed against buffer containing 20 mM HEPES, pH 7.4, 500 mM NaCl and 5% glyceral. TEV protease was added to combined fractions containing target proteins to remove the His-tag. All the proteins except DNMT3A were further purified to homogeneity by ion-exchange chromatography on Source 30S column (10×10) (GE Healthcare), equilibrated with 20 mM PIPES buffer, pH 6.5, and eluted with linear gradient of NaCl up to 500 mM concentration (20CV). For DNMT3A, Source 30Q column was used for ion exchange chromatography. The ^15N-labeled proteins for NMR titration were purified in the same protocols as native ones except that bacteria were grew in M9 minimal medium containing 1 g/L ^15(NH4)2SO4 as the sole nitrogen source. The labeled proteins were concentrated to 0.15–0.3 mM for NMR titration.
Fluorescence polarization assays were performed in 384-well plates, using the Synergy 2 microplate reader from BioTek as described in [43]. All the peptides were synthesized and purified by Tufts University Core Services (Boston, MA, U.S.A.), with the N-terminus labeled with fluorescein. Binding assays were performed in a 10 µl volume at a constant labeled peptide concentration (40 nM), by titrating the PWWP domains (at concentrations ranging from low to high micromolar) into 20 mM PIPES buffer (pH 6.5), containing 50 mM NaCl, 0.01% Tween-20. The data points were fitted to ligand binding function using Sigma Plot software to determine the K d values.

[4] = molecular target: T4, PWWP domain of human BRPF1 (residues 1085–1213) (Homo sapiens, UniProt P55201); experiment: Fluorescence polarization binding of histone peptides to BRPF1 PWWP domain; conditions: N-terminally fluorescein-labeled peptide 40 nM, PWWP domain titrated, 20 mM PIPES pH 6.5, 50 mM NaCl, 0.01% Tween-20, Very weak = binding too weak to be fitted reliably
T4 construct: PWWP domain of human BRPF1 (residues 1085–1213); His-tag (cleaved yes); made in house; host or cells: Escherichia coli BL21 (DE3)-V2R-pRARE2
T4 sequence (P55201 1085-1213): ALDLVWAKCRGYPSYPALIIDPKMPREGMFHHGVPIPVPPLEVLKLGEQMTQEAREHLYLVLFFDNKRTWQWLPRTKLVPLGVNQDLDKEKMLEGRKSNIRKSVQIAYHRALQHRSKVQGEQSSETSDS
Experimental: as §1, with “glycerol. The protein was dialyzed against buffer containing 20 mM HEPES, pH 7.4, 500 mM NaCl and 5% glyceral.” for “glycerol.”

[5] = molecular target: T5, PWWP domain of human MUM1 (melanoma associated antigen (mutated) 1), residues 406-539 (human, UniProt Q2TAK8 406-539); experiment: fluorescence polarisation; 384-well plates, 10 µl; N-terminal fluorescein peptide constant at 40 nM, PWWP domain titrated (low to high micromolar); 20 mM PIPES pH 6.5, 50 mM NaCl, 0.01% Tween-20; conditions: both partners purified
T5 construct: PWWP domain of human MUM1, residues 406-539; Cloned into pET28-MHL (vector GenBank EF456735); source: E. coli BL21 (DE3)-V2R-pRARE2, purified (Ni2+ chelating column, TEV cleavage, Source 30S ion exchange)
T5 sequence (Q2TAK8 406-539, stated change not applied): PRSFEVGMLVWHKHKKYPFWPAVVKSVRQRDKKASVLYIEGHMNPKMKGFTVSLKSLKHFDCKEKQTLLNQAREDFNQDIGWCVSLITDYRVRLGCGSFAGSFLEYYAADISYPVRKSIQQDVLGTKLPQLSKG

[6] = molecular target: T6, PWWP domain of human HDGF2 (Hepatoma-derived growth factor 2), residues 1-93 (human, UniProt Q7Z4V5 1-93); experiment: as above; conditions: both partners purified
T6 construct: PWWP domain of human HDGF2, residues 1-93; Cloned into pET28-MHL (vector GenBank EF456735); also called HGDF2; source: E. coli BL21 (DE3)-V2R-pRARE2, purified (Ni2+ chelating column, TEV cleavage, Source 30S ion exchange)
T6 sequence (Q7Z4V5 1-93): as the sequence (Q7Z4V5 1-93) above

CC(C)[C@H](NC(=O)CNC(=O)CNC(=O)[C@@H](NC(=O)[C@H](C)NC(=O)[C@@H]1CCCN1)[C@@H](C)O)C(=O)N[C@@H](CCCCN(C)C)C(=O)N[C@@H](CCCCN)C(=O)N1CCC[C@H]1C(=O)N[C@@H](Cc1c[nH]cn1)C(=O)N[C@@H](CCCNC(=N)N)C(=O)N[C@@H](Cc1ccc(O)cc1)C(=O)O [Peptide H3K36me2]
WHSC1L1_N Kd (mM) [1]: Very weak
BRPF2 Kd(mM) [2]: Very weak

CC(C)[C@H](NC(=O)CNC(=O)CNC(=O)[C@@H](NC(=O)[C@H](C)NC(=O)[C@@H]1CCCN1)[C@@H](C)O)C(=O)N[C@@H](CCCC[N+](C)(C)C)C(=O)N[C@@H](CCCCN)C(=O)N1CCC[C@H]1C(=O)N[C@@H](Cc1c[nH]cn1)C(=O)N[C@@H](CCCNC(=N)N)C(=O)N[C@@H](Cc1ccc(O)cc1)C(=O)O [Peptide H3K36me3]
WHSC1L1_N Kd (mM) [1]: Very weak
HDGF2 Kd(mM) [3]: weakly; also recorded: Very weak

CC[C@H](C)[C@H](NC(=O)[C@@H](N)CCC(=O)O)C(=O)N[C@@H](C)C(=O)N[C@@H](CCC(N)=O)C(=O)N[C@@H](CC(=O)O)C(=O)N[C@@H](Cc1ccccc1)C(=O)N[C@@H](CCCCN(C)C)C(=O)N[C@H](C(=O)N[C@@H](CC(=O)O)C(=O)N[C@@H](CC(C)C)C(=O)N[C@@H](CCCNC(=N)N)C(=O)N[C@@H](Cc1ccc(O)cc1)C(=O)O)[C@@H](C)O [Peptide H3K79me2]
HDGF2 Kd(mM) [3]: Very weak

CC[C@H](C)[C@H](NC(=O)[C@@H](N)CCC(=O)O)C(=O)N[C@@H](C)C(=O)N[C@@H](CCC(N)=O)C(=O)N[C@@H](CC(=O)O)C(=O)N[C@@H](Cc1ccccc1)C(=O)N[C@@H](CCCC[N+](C)(C)C)C(=O)N[C@H](C(=O)N[C@@H](CC(=O)O)C(=O)N[C@@H](CC(C)C)C(=O)N[C@@H](CCCNC(=N)N)C(=O)N[C@@H](Cc1ccc(O)cc1)C(=O)O)[C@@H](C)O [Peptide H3K79me3]
HDGF2 Kd(mM) [3]: weakly; also recorded: very weak binding affinity

AKRHRK(me)2VLRDN [Peptide H4K20me2, histone H4 peptide dimethylated at K20; N-terminus fluorescein-labeled in FP assay]
BRPF1 Kd(mM) [4]: Very weak
HDGF2 Kd(mM) [3]: Very weak

AKRHRK(me)3VLRDN [Peptide H4K20me3, histone H4 peptide trimethylated at K20; N-terminus fluorescein-labeled in FP assay]
BRPF1 Kd(mM) [4]: Very weak
HDGF2 Kd(mM) [3]: weakly; also recorded: Very weak

B1: H3K36me2 peptide PATGGVK(me)2KPHRY, N-terminal fluorescein (peptide)
peptide: fluorescein-PATGGV[Lys(Me2)]KPHRY
notes: histone H3, stretch around K36; source: synthetic peptide (Tufts University Core Services)
Kd [5]: 400 ± 100 µM
Kd [6]: 1000 ± 200 µM

B2: H3K36me3 peptide PATGGVK(me)3KPHRY, N-terminal fluorescein (peptide)
peptide: fluorescein-PATGGV[Lys(Me3)]KPHRY
notes: as for B1
Kd [5]: 100 ± 70 µM
